{"source": "PubChem BioAssay (NCI)", "experiment_in_all_cases": "DTP human tumour cell line panel, 48 h", "key": {"HOP-62 NSCLC": {"test_system": "HOP-62 NSCLC"}, "NCI-H460 lung": {"test_system": "NCI-H460 lung"}, "SF-539 CNS": {"test_system": "SF-539 CNS"}, "SK-MEL-5 melanoma": {"test_system": "SK-MEL-5 melanoma"}, "M14 melanoma": {"test_system": "M14 melanoma"}, "KM12 colon": {"test_system": "KM12 colon"}, "SNB-75 CNS": {"test_system": "SNB-75 CNS"}, "A549 NSCLC": {"test_system": "A549 NSCLC"}, "BT-549 breast": {"test_system": "BT-549 breast"}, "DU-145 prostate": {"test_system": "DU-145 prostate"}}, "note": "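Following 48 hours of exposure in 96-well plates, responses at five concentrations were used to interpolate endpoints linearly. The concentration for 50% growth inhibition is given as GI50. TGI marks complete inhibition of growth.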", "data": [{"compound": "CN=c1ss/c(=N\\C(=S)N(C)C)n1C1CCCCC1", "values": [{"measurement": "TGI", "setting": "HOP-62 NSCLC", "result": "> 100", "unit": "µM"}, {"measurement": "TGI", "setting": "NCI-H460 lung", "result": "> 31.6", "unit": "µM"}, {"measurement": "TGI", "setting": "SF-539 CNS", "result": "> 100", "unit": "µM"}, {"measurement": "TGI", "setting": "SK-MEL-5 melanoma", "result": "> 31.6", "unit": "µM"}, {"measurement": "TGI", "setting": "M14 melanoma", "result": "> 10", "unit": "µM"}, {"measurement": "TGI", "setting": "KM12 colon", "result": "> 31.6", "unit": "µM"}, {"measurement": "TGI", "setting": "SNB-75 CNS", "result": "> 10", "unit": "µM"}, {"measurement": "TGI", "setting": "A549 NSCLC", "result": "> 31.6", "unit": "µM"}]}, {"compound": "CN(C)CCCNC(=O)c1cccc2nc3ccccc3nc12", "values": [{"measurement": "TGI", "setting": "HOP-62 NSCLC", "result": 45.5, "unit": "µM"}, {"measurement": "TGI", "setting": "SF-539 CNS", "result": 54.2, "unit": "µM"}, {"measurement": "TGI", "setting": "SK-MEL-5 melanoma", "result": "> 100", "unit": "µM"}, {"measurement": "TGI", "setting": "M14 melanoma", "result": "> 53.3", "unit": "µM"}, {"measurement": "TGI", "setting": "KM12 colon", "result": 49.9, "unit": "µM"}, {"measurement": "TGI", "setting": "SNB-75 CNS", "result": "> 100", "unit": "µM"}, {"measurement": "TGI", "setting": "A549 NSCLC", "result": "> 78.7", "unit": "µM"}]}, {"compound": "CC1=C(C(=O)Nc2cccc(C(F)(F)F)c2)C(c2ccccc2F)C(C(=O)Nc2cccc(C(F)(F)F)c2)=C(C)N1", "values": [{"measurement": "TGI", "setting": "HOP-62 NSCLC", "result": 26.2, "unit": "µM"}, {"measurement": "TGI", "setting": "NCI-H460 lung", "result": 21.8, "unit": "µM"}, {"measurement": "TGI", "setting": "SF-539 CNS", "result": 23.8, "unit": "µM"}, {"measurement": "TGI", "setting": "SK-MEL-5 melanoma", "result": 18, "unit": "µM"}, {"measurement": "TGI", "setting": "M14 melanoma", "result": 15.7, "unit": "µM"}, {"measurement": "TGI", "setting": "KM12 colon", "result": 14.8, "unit": "µM"}, {"measurement": "TGI", "setting": "SNB-75 CNS", "result": 79.6, "unit": "µM"}, {"measurement": "TGI", "setting": "A549 NSCLC", "result": 19.7, "unit": "µM"}]}, {"compound": "Nc1nc2c(c(=O)[nH]1)N=C(COP(=O)(O)OP(=O)(O)O)CN2", "values": [{"measurement": "TGI", "setting": "HOP-62 NSCLC", "result": "> 100", "unit": "µM"}, {"measurement": "TGI", "setting": "SF-539 CNS", "result": "> 100", "unit": "µM"}, {"measurement": "TGI", "setting": "BT-549 breast", "result": "> 100", "unit": "µM"}, {"measurement": "TGI", "setting": "SK-MEL-5 melanoma", "result": "> 100", "unit": "µM"}, {"measurement": "TGI", "setting": "M14 melanoma", "result": "> 100", "unit": "µM"}, {"measurement": "TGI", "setting": "KM12 colon", "result": "> 100", "unit": "µM"}, {"measurement": "TGI", "setting": "DU-145 prostate", "result": "> 100", "unit": "µM"}, {"measurement": "TGI", "setting": "SNB-75 CNS", "result": "> 100", "unit": "µM"}, {"measurement": "TGI", "setting": "A549 NSCLC", "result": "> 100", "unit": "µM"}]}, {"compound": "CC(=O)Nc1c(I)c(C(=O)O)c(I)c(N(C)C(C)=O)c1I", "values": [{"measurement": "GI50", "setting": "HOP-62 NSCLC", "result": "> 100", "unit": "µM"}, {"measurement": "TGI", "setting": "HOP-62 NSCLC", "result": "> 100", "unit": "µM"}, {"measurement": "GI50", "setting": "NCI-H460 lung", "result": "> 100", "unit": "µM"}, {"measurement": "TGI", "setting": "NCI-H460 lung", "result": "> 100", "unit": "µM"}, {"measurement": "GI50", "setting": "SF-539 CNS", "result": "> 100", "unit": "µM"}, {"measurement": "TGI", "setting": "SF-539 CNS", "result": "> 100", "unit": "µM"}, {"measurement": "GI50", "setting": "BT-549 breast", "result": "> 100", "unit": "µM"}, {"measurement": "TGI", "setting": "BT-549 breast", "result": "> 100", "unit": "µM"}, {"measurement": "GI50", "setting": "SK-MEL-5 melanoma", "result": "> 100", "unit": "µM"}, {"measurement": "TGI", "setting": "SK-MEL-5 melanoma", "result": "> 100", "unit": "µM"}, {"measurement": "GI50", "setting": "M14 melanoma", "result": "> 100", "unit": "µM"}, {"measurement": "TGI", "setting": "M14 melanoma", "result": "> 100", "unit": "µM"}, {"measurement": "GI50", "setting": "KM12 colon", "result": "> 100", "unit": "µM"}, {"measurement": "TGI", "setting": "KM12 colon", "result": "> 100", "unit": "µM"}, {"measurement": "GI50", "setting": "DU-145 prostate", "result": "> 100", "unit": "µM"}, {"measurement": "TGI", "setting": "DU-145 prostate", "result": "> 100", "unit": "µM"}, {"measurement": "GI50", "setting": "SNB-75 CNS", "result": "> 100", "unit": "µM"}, {"measurement": "TGI", "setting": "SNB-75 CNS", "result": "> 100", "unit": "µM"}, {"measurement": "GI50", "setting": "A549 NSCLC", "result": "> 100", "unit": "µM"}, {"measurement": "TGI", "setting": "A549 NSCLC", "result": "> 100", "unit": "µM"}]}, {"compound": "C=C(CS(=O)(=O)c1ccccc1)C(=O)OCC", "values": [{"measurement": "TGI", "setting": "NCI-H460 lung", "result": 35.4, "unit": "µM"}, {"measurement": "TGI", "setting": "SF-539 CNS", "result": 33.2, "unit": "µM"}, {"measurement": "TGI", "setting": "M14 melanoma", "result": 24.2, "unit": "µM"}, {"measurement": "TGI", "setting": "KM12 colon", "result": 32.6, "unit": "µM"}, {"measurement": "TGI", "setting": "SNB-75 CNS", "result": 32, "unit": "µM"}, {"measurement": "TGI", "setting": "A549 NSCLC", "result": 37.1, "unit": "µM"}]}, {"compound": "Cc1ccn2c(-c3csc(Nc4cccc(O)c4)n3)c(C)nc2c1", "values": [{"measurement": "GI50", "setting": "HOP-62 NSCLC", "result": 0.638, "unit": "µM"}, {"measurement": "TGI", "setting": "HOP-62 NSCLC", "result": 19.1, "unit": "µM"}, {"measurement": "GI50", "setting": "NCI-H460 lung", "result": 0.423, "unit": "µM"}, {"measurement": "TGI", "setting": "NCI-H460 lung", "result": 16.9, "unit": "µM"}, {"measurement": "GI50", "setting": "SF-539 CNS", "result": 0.498, "unit": "µM"}, {"measurement": "TGI", "setting": "SF-539 CNS", "result": 3.75, "unit": "µM"}, {"measurement": "GI50", "setting": "BT-549 breast", "result": 0.781, "unit": "µM"}, {"measurement": "TGI", "setting": "BT-549 breast", "result": 33.6, "unit": "µM"}, {"measurement": "GI50", "setting": "SK-MEL-5 melanoma", "result": 0.478, "unit": "µM"}, {"measurement": "TGI", "setting": "SK-MEL-5 melanoma", "result": 11.1, "unit": "µM"}, {"measurement": "GI50", "setting": "M14 melanoma", "result": 0.359, "unit": "µM"}, {"measurement": "TGI", "setting": "M14 melanoma", "result": 18, "unit": "µM"}, {"measurement": "GI50", "setting": "KM12 colon", "result": 0.273, "unit": "µM"}, {"measurement": "TGI", "setting": "KM12 colon", "result": 16.4, "unit": "µM"}, {"measurement": "GI50", "setting": "DU-145 prostate", "result": 0.787, "unit": "µM"}, {"measurement": "TGI", "setting": "DU-145 prostate", "result": 25.3, "unit": "µM"}, {"measurement": "GI50", "setting": "SNB-75 CNS", "result": 0.225, "unit": "µM"}, {"measurement": "TGI", "setting": "SNB-75 CNS", "result": 1.65, "unit": "µM"}, {"measurement": "GI50", "setting": "A549 NSCLC", "result": 0.896, "unit": "µM"}, {"measurement": "TGI", "setting": "A549 NSCLC", "result": 26.1, "unit": "µM"}]}, {"compound": "Cc1cc(C(=O)N2CCN(C)CC2)c2c(=O)n(-c3ccccc3)c(=O)n(CC(O)CN3CCN(c4ncccn4)CC3)c2n1", "note": "(centres undefined)", "values": [{"measurement": "GI50", "setting": "HOP-62 NSCLC", "result": "> 100", "unit": "µM"}, {"measurement": "TGI", "setting": "HOP-62 NSCLC", "result": "> 100", "unit": "µM"}, {"measurement": "GI50", "setting": "NCI-H460 lung", "result": "> 100", "unit": "µM"}, {"measurement": "TGI", "setting": "NCI-H460 lung", "result": "> 100", "unit": "µM"}, {"measurement": "GI50", "setting": "SF-539 CNS", "result": "> 100", "unit": "µM"}, {"measurement": "TGI", "setting": "SF-539 CNS", "result": "> 100", "unit": "µM"}, {"measurement": "GI50", "setting": "SK-MEL-5 melanoma", "result": "> 100", "unit": "µM"}, {"measurement": "TGI", "setting": "SK-MEL-5 melanoma", "result": "> 100", "unit": "µM"}, {"measurement": "GI50", "setting": "M14 melanoma", "result": "> 100", "unit": "µM"}, {"measurement": "TGI", "setting": "M14 melanoma", "result": "> 100", "unit": "µM"}, {"measurement": "GI50", "setting": "KM12 colon", "result": "> 100", "unit": "µM"}, {"measurement": "TGI", "setting": "KM12 colon", "result": "> 100", "unit": "µM"}, {"measurement": "GI50", "setting": "DU-145 prostate", "result": "> 100", "unit": "µM"}, {"measurement": "TGI", "setting": "DU-145 prostate", "result": "> 100", "unit": "µM"}, {"measurement": "GI50", "setting": "SNB-75 CNS", "result": "> 100", "unit": "µM"}, {"measurement": "TGI", "setting": "SNB-75 CNS", "result": "> 100", "unit": "µM"}]}, {"compound": "O=C(NCCSSCCNC(=O)/C(Cc1ccc(O)c(Br)c1)=N/O)/C(Cc1ccc(O)c(Br)c1)=N/O", "values": [{"measurement": "TGI", "setting": "HOP-62 NSCLC", "result": 6.1, "unit": "µM"}, {"measurement": "TGI", "setting": "NCI-H460 lung", "result": "> 20.6", "unit": "µM"}, {"measurement": "TGI", "setting": "SF-539 CNS", "result": 8.84, "unit": "µM"}, {"measurement": "TGI", "setting": "BT-549 breast", "result": 15, "unit": "µM"}, {"measurement": "TGI", "setting": "SK-MEL-5 melanoma", "result": 2.33, "unit": "µM"}, {"measurement": "TGI", "setting": "M14 melanoma", "result": 7.22, "unit": "µM"}, {"measurement": "TGI", "setting": "KM12 colon", "result": 10.5, "unit": "µM"}, {"measurement": "TGI", "setting": "DU-145 prostate", "result": 12.7, "unit": "µM"}, {"measurement": "TGI", "setting": "SNB-75 CNS", "result": "> 13.6", "unit": "µM"}, {"measurement": "TGI", "setting": "A549 NSCLC", "result": 15.5, "unit": "µM"}]}]}
